Patent US8362000B2, “Azetidinyl diamides as monoacylglycerol lipase inhibitors” (Janssen Pharmaceutica NV, priority 2009, dated 2013)
Numbering of substitutions follows the chain as printed. pIC50, pKd: −log10 of the molar value. Like-named read-outs stand apart in the source and are kept apart here.

Key:
MGL = target: T1, MGL (Rattus norvegicus, UniProt Q8R431); assay: 2-AG accumulation assay in rat brain homogenate; type: biochemical; settings: rat brain homogenate, 2-AG accumulation as percent of vehicle; for 2-AG accumulation, % of vehicle control at 0.01 µM: compound 0.01 μM, read-out: Rat Brain 2AG % VehCntrl (%) @ 0.01 μM; for 2-AG accumulation, % of vehicle control at 0.1 µM: compound 0.1 μM, read-out: Rat Brain 2AG % VehCntrl (%) @ 0.1 μM; for 2-AG accumulation, % of vehicle control at 1 µM: compound 1 μM, read-out: Rat Brain 2AG % VehCntrl (%) @ 1 μM; for 2-AG accumulation, % of vehicle control at 10 µM: compound 10 μM, read-out: Rat Brain 2AG % VehCntrl (%) @ 10 μM
T1 construct: one g rat brain was homogenized using a Polytron homogenizer; from tissue; host or cells: rat brain homogenate
T1 sequence (Q8R431 1-303): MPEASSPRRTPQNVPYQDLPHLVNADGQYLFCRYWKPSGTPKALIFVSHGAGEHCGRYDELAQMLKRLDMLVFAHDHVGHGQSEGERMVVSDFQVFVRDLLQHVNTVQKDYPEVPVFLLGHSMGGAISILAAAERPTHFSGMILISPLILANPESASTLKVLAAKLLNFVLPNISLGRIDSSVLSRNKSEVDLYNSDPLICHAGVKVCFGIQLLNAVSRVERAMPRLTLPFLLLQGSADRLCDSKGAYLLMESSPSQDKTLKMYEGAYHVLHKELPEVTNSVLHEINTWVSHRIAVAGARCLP

mutant MGL = target: T2, mutant MGL (Homo sapiens, UniProt Q99685, L169S/L176S); assay: MGL ThermoFluor assay - mutant; type: binding; settings: for pKd: read-out: MGL mutant ThermoFluor Kd; for Kd: ThermoFluor, compound concentration measured by qNMR, read-out: MGL mutant ThermoFluor qKd (μM) (using qNMR conc.)
T2 sequence (Q99685 1-303 L169S/L176S): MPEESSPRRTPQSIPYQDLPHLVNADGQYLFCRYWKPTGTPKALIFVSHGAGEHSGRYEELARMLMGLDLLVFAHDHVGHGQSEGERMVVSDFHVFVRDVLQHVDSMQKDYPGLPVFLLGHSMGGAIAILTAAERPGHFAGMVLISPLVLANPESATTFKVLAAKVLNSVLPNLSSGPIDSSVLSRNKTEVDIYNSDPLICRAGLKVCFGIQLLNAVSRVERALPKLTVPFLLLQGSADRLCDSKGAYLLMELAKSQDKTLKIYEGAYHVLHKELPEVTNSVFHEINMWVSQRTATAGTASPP

[1] = test system: CFA-induced paw radiant heat hypersensitivity; assay: CFA-induced paw radiant heat hypersensitivity; type: in vivo, rat; settings: Rattus norvegicus, po, 30 mg/kg p.o., HPβCD, last time point 180 or 300 min
[2] = target: T3, purified wild type MGL (wt-MGLL 6H-11-313) (Homo sapiens, UniProt Q99685)
T3 sequence (Q99685 1-303): T2 sequence (Q99685 1-303 L169S/L176S) with S169L, S176L

[3] = ThermoFluor concentration-response
[4] = group mean values, read-out: CFA thermal hypersensitivity Method 1: peak % reversal
[5] = individual animal values, read-out: CFA thermal hypersensitivity Method 2: peak % reversal
[6] = ThermoFluor thermal stability binding assay

Compound	2-AG accumulation, % of vehicle control at 0.01 µM (MGL)	2-AG accumulation, % of vehicle control at 0.1 µM (MGL)	2-AG accumulation, % of vehicle control at 1 µM (MGL)	2-AG accumulation, % of vehicle control at 10 µM (MGL)	pKd (mutant MGL; [3])	pIC50 [2]	pKd (mutant MGL; [6])	Kd (mutant MGL)	inhibition in vivo at 30 mg/kg [1, 4]	inhibition in vivo at 30 mg/kg [1, 5]
COc1cc(C(=O)N2CC(N3CCN(C(=O)c4cscn4)CC3)C2)ccc1-c1ccc(F)c(Cl)c1 [Cpd 261, 1-{1-[(3′-Chloro-4′-fluoro-2-methoxybiphenyl-4-yl)carbonyl]azetidin-3-yl}-4-(1,3-thiazol-4-ylcarbonyl)piperazine]	–	148%	525%	856%	–	8.08	8.04	–	26.4%	27.5%
Cc1cc(-c2ccc(F)c(Cl)c2)ccc1C(=O)N1CC(N2CCN(C(=O)c3cscn3)CC2)C1 [Cpd 253, 1-{1-[(3′-Chloro-4′-fluoro-3-methylbiphenyl-4-yl)carbonyl]azetidin-3-yl}-4-(1,3-thiazol-4-ylcarbonyl)piperazine]	–	107%	319%	624%	–	7.31	7.67	–	64.3%	87.2%
O=C(c1cc2cc(C(F)(F)F)ccc2s1)N1CC(N2CCN(C(=O)c3nccs3)CC2)C1 [Cpd 316, 1-(1,3-Thiazol-2-ylcarbonyl)-4-(1-{[5-(trifluoromethyl)-1-benzothiophen-2-yl]carbonyl}azetidin-3-yl)piperazine]	243%	265%	760%	694%	–	> 8.30	7.78	–	69.3%	70.8%
Cc1nc(-c2cccc(C(F)(F)F)c2)sc1C(=O)N1CC(N2CCN(C(=O)c3cscn3)CC2)C1 [Cpd 485, 1-[1-({4-Methyl-2-[3-(trifluoromethyl)phenyl]-1,3-thiazol-5-yl}carbonyl)azetidin-3-yl]-4-(1,3-thiazol-4-ylcarbonyl)piperazine]	–	208%	396%	818%	7.59	6.99	–	–	34.4%	32.3%
O=C(c1cscn1)N1CCN(C2CN(C(=O)c3ccc(-c4ccc(Cl)c(C(F)(F)F)c4)cc3Cl)C2)CC1 [Cpd 266, 1-(1-{[3,4′-Dichloro-3′-(trifluoromethyl)biphenyl-4-yl]carbonyl}azetidin-3-yl)-4-(1,3-thiazol-4-ylcarbonyl)piperazine]	–	–	395%	–	–	7.30	7.80	–	50.5%	56.1%
O=C(c1ccccc1)N1CCN(C2CN(C(=O)c3ccc(-c4ccccc4)cc3)C2)CC1 [Cpd 5, 1-[1-(Biphenyl-4-ylcarbonyl)azetidin-3-yl]-4-(phenylcarbonyl)piperazine]	122%	123%	156%	279%	7.26	6.28	–	–	96.6%	100%
O=C(c1ccc2nc(-c3ccc(C(F)(F)F)cc3)oc2c1)N1CC(N2CCN(C(=O)c3nccs3)CC2)C1 [Cpd 314, 6-({3-[4-(1,3-Thiazol-2-ylcarbonyl)piperazin-1-yl]azetidin-1-yl}carbonyl)-2-[4-(trifluoromethyl)phenyl]-1,3-benzoxazole]	175%	237%	512%	553%	–	> 8.30	7.41	–	41%	41.2%

Further lines, with some results ahead:

2-AG accumulation, % of vehicle control at 0.01 µM (MGL)	2-AG accumulation, % of vehicle control at 0.1 µM (MGL)	2-AG accumulation, % of vehicle control at 1 µM (MGL)	2-AG accumulation, % of vehicle control at 10 µM (MGL)	pKd (mutant MGL; [3])	pIC50 [2]	pKd (mutant MGL; [6])	Kd (mutant MGL)	Compound	inhibition in vivo at 30 mg/kg [1, 4]	inhibition in vivo at 30 mg/kg [1, 5]
208%	343%	756%	886%	8.08	7.65	–	–	Cc1nc(-c2cccc(Cl)c2)sc1C(=O)N1CC(N2CCN(C(=O)c3nccs3)CC2)C1 [Cpd 490, 1-(1-{[2-(3-Chlorophenyl)-4-methyl-1,3-thiazol-5-yl]carbonyl}azetidin-3-yl)-4-(1,3-thiazol-2-ylcarbonyl)piperazine]	18.4%	19.7%
–	219%	248%	681%	–	6.42	6.49	–	Cc1cc(-c2ccccc2)ccc1C(=O)N1CC(N2CCN(C(=O)c3cscn3)CC2)C1 [Cpd 488, 1-{1-[(3-Methylbiphenyl-4-yl)carbonyl]azetidin-3-yl}-4-(1,3-thiazol-4-ylcarbonyl)piperazine]	78%	85.5%
–	–	588%	–	7.70	7.96	–	–	O=C(c1ccc(Oc2ncc(C(F)(F)F)cc2Cl)cc1)N1CC(N2CCN(C(=O)c3nccs3)CC2)C1 [Cpd 663]	33.9%	–
–	–	650%	–	–	7.82	9.00	0.001 µM	O=C(c1cscn1)N1CCN(C2CN(C(=O)c3sc4c(F)c(C(F)(F)F)ccc4c3Cl)C2)CC1 [Cpd 670]	20.9%	–
–	–	635%	–	9.00	> 8.30	–	–	O=C(c1ccc2c(ccn2-c2ccc(F)c(F)c2)c1)N1CC(N2CCN(C(=O)c3nccs3)CC2)C1 [Cpd 1362, 1-(3,4-Difluorophenyl)-5-({3-[4-(1,3-thiazol-2-ylcarbonyl)piperazin-1-yl]azetidin-1-yl}carbonyl)-1H-indole]	186%	–
–	–	543%	–	–	> 8.30	9.00	0.001 µM	O=C(c1nccs1)N1CCN(C2CN(C(=O)c3sc4cc(C(F)(F)F)c(F)cc4c3Cl)C2)CC1 [Cpd 900]	8.5%	–
–	–	242%	–	7.48	6.87	–	–	O=C(c1ccccc1)N1CCN(C2CN(C(=O)c3sc4cc(C(F)(F)F)ccc4c3F)C2)CC1 [Cpd 509]	17.8%	–
–	–	944%	–	9.00	> 8.30	–	–	O=C(c1ccc2c(ccn2-c2ccc(F)cc2F)c1)N1CC(N2CCN(C(=O)c3nccs3)CC2)C1 [Cpd 1364, 1-(2,4-Difluorophenyl)-5-({3-[4-(1,3-thiazol-2-ylcarbonyl)piperazin-1-yl]azetidin-1-yl}carbonyl)-1H-indole]	17%	–
–	–	397%	–	7.52	7.51	–	–	O=C(c1ccccc1)N1CCN(C2CN(C(=O)c3ccc4c(-c5cccc(C(F)(F)F)c5)c[nH]c4c3)C2)CC1 [Cpd 572]	-5.1%	–
